Data: patent publication US20260315431A1, “NANOMATERIAL ENCAPSULATED BIOFILM INHIBITORS FOR DENTAL CARIES TREATMENT” (THE UAB RESEARCH FOUNDATION, priority 2023, published 2026)
“Also recorded” adds a separate entry of the source.

Tests used:
S. gordonii DL1 = assay: Commensal biofilm inhibition, S. gordonii DL1 (crystal violet, OD562); format: cell-based, Streptococcus gordonii; details: for S. gordonii biofilm: 25 μM
Protocol: (§1) The bacterial strains, S. mutans UA159, S. gordonii DL1, and S. sanguinis SK36 were inoculated statically at 37° C. under 5% CO2 in Todd Hewitt Broth (THB) for 24 h. The cultures were then diluted with fresh THB (1:5) and reinoculated until optical density at 470 nm (OD470) reached 1. The optical density was read using BioTek 800TS microplate reader at 470 nm for bacterial growth and 562 nm for biofilm stained with crystal violet. Data was plotted in Graphpad Prism9.
Biofilm inhibition assays. Biofilm inhibition assays were performed in polystyrene microtiter 96 well plates. Stock solutions were prepared in chemically defined medium (CDM, JRH Biosciences, Lenexa, KS) with 2% sucrose, 1% bacteria cultures and various concentrations of the small molecule inhibitors to examine their activity against biofilm formation as described^69, 70. These stocks were assayed in 96 well plates in triplicate and incubated at 37° C. and 5% CO2 for 16 h. After reading optical density for bacterial growth, the plate was gently washed with water, dried, and stained with crystal violet, and then gently rinsed again with deionized water leaving the stained biofilm at the bottoms of the wells. Biofilms was dissolved in 200 μL of 30% acetic acid and absorbance at 562 nm was used read to determine biofilm biomass. Each assay was carried out at least in triplicate. Biofilm inhibitory concentration (IC50) of the compounds was determined by serial dilutions.
(§2) All bacterial strains (S. mutans UA159, S. gordonii DL1, and S. sanguinis SK36) were inoculated statically at 37° C. under 5% CO2 environment in Todd Hewitt Broth (THB) for 24 h^[61]. […] The optical density was read using BioTek 800 TS absorbance reader at 470 nm for bacterial growth and 562 nm for biofilm stained with crystal violet. […]
Biofilm inhibition assays were performed in polystyrene microtiter 96-well plates. […] After reading optical density for bacterial growth, the plate was washed, dried, and stained with 0.1% crystal violet which was again rinsed well with deionized water leaving the stained biofilm at the bottoms of the wells. […]

S. sanguinis SK36 = assay: Commensal biofilm inhibition, S. sanguinis SK36 (crystal violet, OD562); format: cell-based, Streptococcus sanguinis; details: 25 μM
Protocol: as §1
Biofilm inhibition assays. Biofilm inhibition assays were performed in polystyrene microtiter 96 well plates. […] After reading optical density for bacterial growth, the plate was gently washed with water, dried, and stained with crystal violet, and then gently rinsed again with deionized water leaving the stained biofilm at the bottoms of the wells. Biofilms was dissolved in 200 μL of 30% acetic acid and absorbance at 562 nm was used read to determine biofilm biomass. […] Biofilm inhibitory concentration (IC50) of the compounds was determined by serial dilutions.
as §2

[1] = Body weight of animals, HEBI / HA5 study; format: in vivo, Fischer 344 rats; details: for Weight: 100 μM (NaF 250 ppm), 4 weeks
Protocol: Rat model of dental caries. In vivo studies of colonization and virulence of S. mutans were evaluated using a previously reported rat model of dental caries^71. Offspring of gnotobiotic Fischer 344 rats used in this experiment were bred and maintained in trexler isolators. Male and female rat pups were removed from isolators at 20 days of age and randomly assigned into 5 treatment groups of 5 rats/group in cages with filter tops. Rats were then infected with S. mutans UA159 strain by oral swabbing daily for four consecutive days with a fresh overnight culture of S. mutans UA159. Rats were provided with caries promoting Teklad Diet 305 containing […] (Harlan Laboratories, Inc., Indianapolis, IN) and sterile drinking water ad libitum. Oral swabs were taken 5 days post-infection and plated on Todd Hewitt (TH) agar plates and incubated at 37° C. in an environment of 5% CO2 in the air to confirm colonization. Rats were weighed at weaning and at the termination of the experiment. One-week post-infection, the molars of the rats were treated topically twice daily for 4 weeks with the test compounds using camel-hair brushes. […] Each sample was serially diluted, plated on blood agar plates (BAP) and mitis-salivarius (MS) agar plates and incubated in an environment of 5% CO2 at 37° C. to quantify the level of total bacteria and S. mutans present in the plaque. […] After drying, the mandibles were sectioned and scored for caries activity using the Keyes method^68. Caries scores were recorded for the buccal, sulcal and proximal molar surfaces individually so that differences among the surfaces can be distinguished. Statistical significance in the mean caries scores, colony-forming units (CFUs)/mandible and body weights between groups of rats were determined by one-way analysis of variance (ANOVA) with the Tukey-Kramer multiple comparison test using the InStat program (Graphpad Software, San Diego, CA). […]

| Structure (SMILES) | S. gordonii biofilm (S. gordonii DL1) | inhibition at 25 µM (S. gordonii DL1; Streptococcus gordonii, DL1) [%] | S. sanguinis biofilm (S. sanguinis SK36) | Weight [1] [g] | weight loss ([1]; 4-week treatment, 100 μM) |
| --- | --- | --- | --- | --- | --- |
| O=C1/C(=C/c2cc(O)c(O)cc2O)Oc2ccccc21 [HA5, 2-[(2′,4′,5′-Trihydroxyphenyl)methylidene]-2,3-dihydro-1-benzofuran-3-one] | minimal | ~20 | did not significantly reduce; also recorded: minimal | 137 ± 13 | did not experience any weight loss |
| O=C1/C(=C/c2cc(O)c(O)c(O)c2)Oc2ccccc21 [HA6, 2-[(3′,4′,5′-Trihydroxyphenyl)methylidene]-2,3-dihydro-1-benzofuran-3-one] | did not significantly reduce the biofilms | – | did not significantly reduce the biofilms | – | – |
| [F-].[Na+] [NaF, reference compound] | – | – | – | 161 ± 13 | – |
